Common to all, as to type: functional
Assay [1] relates to Candida albicans. The assay is described as follows: Antifungal activity against Candida albicans ATCC 10231 assessed as fungal growth inhibition measured after 24 hrs by two fold serial dilution technique.
In the next assay the test system is Cryptococcus neoformans. The assay is described as follows: Antifungal activity against Cryptococcus neoformans H99 assessed as fungal growth inhibition measured after 20 hrs by microplate assay.
Assay [2] deals with Candida albicans. The assay can be described thus: Antifungal activity against Candida albicans SC5314 assessed as fungal growth inhibition measured after 20 hrs by microplate assay.
The test system of assay [3] is Candida albicans. The assay is described as follows: Antifungal activity against Candida albicans assessed as fungal growth inhibition measured after 48 hrs by broth microdilution assay. In general terms: In broth dilution the organism is exposed to a series of concentrations in liquid medium.
For assay [4], the system named is Candida albicans. The assay is described as follows: Antifungal activity against Candida albicans SC5314 assessed as log reduction in fungal growth at 2x MIC measured after 6 hrs.

≈ marks a conversion by molar mass, not a printed value.

On to `CC[n+]1ccn(CCC[C@@H](C)[C@H]2CC[C@H]3[C@@H]4CC[C@@H]5C[C@H](O)CC[C@]5(C)[C@H]4CC[C@]23C)c1.[I-]`, for which the MIC80 with Candida albicans [1] was 0.5 µg/mL.

Consider `CCCCCCCCCCN(Cc1cccc2ccccc12)C(=O)C(N)CCCCN` (stereo unspecified), for which the MIC80 with Cryptococcus neoformans was determined as 3.1 µg/mL (≈ 7.28 µM); in the assay with Candida albicans [2], 12.5 µg/mL (≈ 29.4 µM).

For the molecule `C[C@H](CCCn1cc[n+](C)c1)[C@H]1CC[C@H]2[C@@H]3CC[C@@H]4C[C@H](O)CC[C@]4(C)[C@H]3CC[C@]12C.[I-]`, in the assay on Candida albicans [1], the MIC80 stood at 0.25 µg/mL.

For `C[C@H](CCC(=O)O)[C@H]1CC[C@H]2[C@@H]3CC[C@@H]4C[C@H](O)CC[C@]4(C)[C@H]3CC[C@]12C` [LITHOCHOLIC ACID], the MIC80 in the assay on Candida albicans [3] is 3.12 µg/mL (≈ 8.29 µM).

Turning to H-GIWKKWIKKWLKKLKNLF-NH2, the Activity with Candida albicans [4] worked out at 5.55 log reduction.

A word on the MIC80: it is the lowest concentration that inhibits either 80% of growth or 80% of the strains tested, depending on the study.

The values above are taken from ChEMBL document CHEMBL5329169, “Recent developments in membrane targeting antifungal agents to mitigate antifungal resistance” (2023).
